These results are taken from PubChem BioAssay AID1845197 (Molecular Pharmacology Branch, DTP, NCI, 2023).

Where “and” joins values, the source holds several entries; their conditions need not be identical. Identical values can stand only once.

The assay concerns 349418-098-R tumor spheroid viability. Briefly: Anticancer human tumor 349418-098-R patient-derived lung adenocarcinoma cell line growth inhibition. The following applies: spheroids with HUVEC and MSC; for viability, T/C: stronger effect = lower value. The text has this: Multicellular complex tumor spheroid response to DNA repair inhibitors in combination with DNA-damaging drugs
This study explores the anticancer activities of DNA-damaging drugs and inhibitors of DNA damage repair, both as single agents and in combinations. Complex tumor spheroids comprised of malignant cells, endothelial cells and mesenchymal stem cells served as an in vitro model for human solid tumors. This model system incorporates physiologically relevant features and patient-derived or established malignant cell lines with clinically relevant genetic alterations from many tumor types. Twenty-six patient-derived or established malignant cell lines were evaluated representing sarcoma, melanoma, small cell lung cancer (SCLC), non-small cell lung cancer (NSCLC), as well as bladder, ovarian and pancreatic cancers. The concentration ranges selected for each drug and investigational agent were based upon clinically achievable concentrations if the clinical Cmax of the agent was known.
Compounds. The drugs and compounds olaparib (NSC753686), talazoparib (NSC767125), berzosertib (NSC777718), elimusertib (NSC800525), nedisertib (NSC802822), VX-984 (NSC792969), AZD-1390 (NSC803789), temozolomide (NSC362856), topotecan (NSC609699), trabectedin (NSC813783), staurosporine (NSC755774), and gemcitabine (NSC613327) were obtained from the National Cancer Institute (NCI) Developmental Therapeutics Program Chemical Repository. The FDA-approved anticancer drug set is available from the Developmental Therapeutics Program at https://dtp.cancer.gov/organization/dscb/obtaining/available_plates.htm. […] The stock solutions were prepared in dimethyl sulfoxide (DMSO, Sigma-Aldrich, St. Louis, MO, cat. D2650) at 400-fold the tested concentration and stored at -70 degrees C. Prior to their use, the stock solutions were diluted in fresh medium and the final DMSO concentration in the assay was 0.25% (v/v). All drugs and investigational agents were tested over a range starting from a high concentration at or near the clinical Cmax and decreasing in half-log increments. If the clinical Cmax for an agent had not been determined, the highest concentration tested was 10 microM.
Cell Lines. The patient-derived cancer cell (PDC) lines: 156681-154-R-J1-PDC, 283228-195-R-J1-PDC, 287954-098-R-J1-PDC, 292921-168-R-J2-PDC, 349418-098-R-PDC, 425362-245-T-J1-PDC, 556581-035-R-J1-PDC, and BL0293-F563-PDC were received from the NCI Patient-Derived Models Repository (PDMR, https://pdmr.cancer.gov). The established cell lines HS-SY-2 (RRID:CVCL_8719), MPNST, and SYO-1 (RRID:CVCL_7146) were obtained from the Sloan Kettering Institute. The alveolar soft parts sarcoma cell line ASPS-1 (RRID:CVCL_S738) was established at the NCI and grown from internal seed stocks. The following established cell lines were purchased from the American Type Culture Collection (ATCC, Manassas, VA): G-401 (ATCC, cat. CRL-1441, RRID:CVCL_0270), SW982 (ATCC, cat. HTB-93, RRID:CVCL_1734), VA-ES-BJ (ATCC, cat. CRL-2138, RRID:CVCL_1785), NCI-H719 (ATCC, cat. CRL-5837, RRID:CVCL_1582), NCI-H196 (ATCC, cat. CRL-5823, RRID:CVCL_1509), NCI-H841 (ATCC, cat. CRL-5845, RRID:CVCL_1595), NCI-H1618 (ATCC, cat. CRL-5879, RRID:CVCL_1480), NCI-H1876 (ATCC, cat. CRL-5902, RRID:CVCL_1503), DMS 114 (ATCC, cat. CRL-2066; RRID:CVCL_1174), NCI-H211 (ATCC, cat. CRL-5824; RRID:CVCL_1529), and SW 1271 (ATCC, cat. CRL-2177, RRID:CVCL_1716). The small cell lung cancer cell line COR-L88 was purchased from Sigma-Aldrich (cat. 92031917-1VL, RRID:CVCL_1141). The non-small cell lung cancer cell lines NCI-H226 (RRID:CVCL_1544) and NCI-H322M (RRID:CVCL_1557) were established at the NCI and grown from internal seed stocks. Pooled donor human umbilical vein endothelial cells (HUVEC, Lonza, cat. CC-2519) and human mesenchymal stem cells (hMSC, Lonza, cat. PT-2501) were purchased from Lonza (Walkersville, MD).
Cell Culture. All cells were maintained in an incubator at 37 degrees C and 5% CO2 with 95% humidity. […]
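Also: spheroids exposed to compound for 7 days before measurement.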
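For viability, T/C in this document: percent of vehicle control viability with 100% = DMSO-treated spheroids.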

A word on the viability, T/C: it is the ratio of treated to control. A word on the IC50: it is the concentration needed to halve the response being measured. On to `O=C(c1cc(Cc2n[nH]c(=O)c3ccccc23)ccc1F)N1CCN(C(=O)C2CC2)CC1`, for which the viability, T/C (compound 0.0949 µM) was 103% and 97.1% and 105%; the viability, T/C (compound 0.3 µM) is 104% and 106% and 113%; the viability, T/C (compound 0.949 µM) is 101% and 97.6% and 107%; the viability, T/C (compound 3 µM) is 94.8% and 97.7% and 110%; the viability, T/C (compound 9.49 µM) was 84.8% and 83.9% and 106%; the viability, T/C (compound 30 µM) was 56.2% and 53.6% and 74.1%. Further, for the setting “curve of compound”, the half-maximal inhibitory concentration (IC50) is above 30 µM.
In the case of `COc1ccc([C@@H](O)c2cc(-c3ncnc4cc(N5CCOCC5)ccc34)c(F)cc2Cl)nn1` + Cn1nnc2c(C(N)=O)ncn2c1=O, the IC50 was determined as 5.61 µM (curve of first compound, second compound 1 µM); 5.09 µM (curve of first compound, second compound 3.16 µM); 5.17 µM (curve of first compound, second compound 10 µM); 4.27 µM (curve of first compound, second compound 31.6 µM); 3.61 µM (curve of first compound, second compound 100 µM). In addition, the viability, T/C (second compound 1 µM, first compound 0.0316 µM) was 97.6%; the viability, T/C (second compound 1 µM, first compound 0.1 µM) was 95.6%; the viability, T/C (second compound 1 µM, first compound 0.316 µM) is 101%; the viability, T/C (second compound 1 µM, first compound 1 µM) was 97.7%; the viability, T/C (second compound 1 µM, first compound 3.16 µM) was 73.3%; the viability, T/C (second compound 1 µM, first compound 10 µM) was 26.4%. Besides, the viability, T/C runs as follows: (second compound 3.16 µM, first compound 0.0316 µM) 103%; (second compound 3.16 µM, first compound 0.1 µM) 99%; (second compound 3.16 µM, first compound 0.316 µM) 106%; (second compound 3.16 µM, first compound 1 µM) 102%; (second compound 3.16 µM, first compound 3.16 µM) 70.1%; (second compound 3.16 µM, first compound 10 µM) 21.3%. Moreover, the viability, T/C by setting is: (second compound 10 µM, first compound 0.0316 µM) 99.8%; (second compound 10 µM, first compound 0.1 µM) 97.5%; (second compound 10 µM, first compound 0.316 µM) 103%; (second compound 10 µM, first compound 1 µM) 104%; (second compound 10 µM, first compound 3.16 µM) 66%; (second compound 10 µM, first compound 10 µM) 28.5%. The viability, T/C by setting is: (second compound 31.6 µM, first compound 0.0316 µM) 99.1%; (second compound 31.6 µM, first compound 0.1 µM) 104%; (second compound 31.6 µM, first compound 0.316 µM) 101%; (second compound 31.6 µM, first compound 1 µM) 106%; (second compound 31.6 µM, first compound 3.16 µM) 59.8%; (second compound 31.6 µM, first compound 10 µM) 22.2%. Further, the viability, T/C is, setting by setting: (second compound 100 µM, first compound 0.0316 µM) 102%; (second compound 100 µM, first compound 0.1 µM) 112%; (second compound 100 µM, first compound 0.316 µM) 107%; (second compound 100 µM, first compound 1 µM) 102%; (second compound 100 µM, first compound 3.16 µM) 53.4%; (second compound 100 µM, first compound 10 µM) 24.1%.
For the compound `Cc1sc2c(c1C)C(c1ccc(Cl)cc1)=NC(CC(=O)Nc1ccc(O)cc1)c1nnc(C)n1-2` (centres undefined), the viability, T/C by setting is: (compound 0.00949 µM) 99.1% and 96.4% and 100%; (compound 0.03 µM) 101% and 90.4% and 111%; (compound 0.0949 µM) 73% and 49% and 66.3%; (compound 0.3 µM) 13.4% and 14.2% and 11.2%; (compound 0.949 µM) 1.66% and 1.1% and 1.46%; (compound 3 µM) 0.54% and 0.67% and 1%. Moreover, the IC50 (curve of compound) is 0.148 µM and 0.0965 µM and 0.134 µM.
